US20260258025A1, “INHIBITORS OF TDP-43 AND TAU AGGREGATION” (Aquinnah Pharmaceuticals, inc., priority 2023, published 2026)

Experiments:
[1] = system: TDP-43 aggregation; assay: TDP-43 aggregation assay in SY5Y TDP-43WT cells (high content imaging); format: cell-based; conditions: Homo sapiens, tetracycline induction 24 hrs, 1 hour compound pre-treatment, sodium arsenite 23 hrs, 8-point dose curve, percentage of cells with TDP-43 aggregates, read-out: IC50, Inhibition of TDP-43 Aggregation
How it was run: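 Tetracycline-inducible eGFP-tagged wild-type human TDP-43 in SH-SY5Y cells, induced 24 h ([…]), compound pre-treated 1 h, then sodium arsenite […] for 23 h. Fixed cells imaged; percentage of DAPI-counted cells with aggregates gives IC50 from 8-point curves.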

[2] = system: tau stress granules; assay: SY5Y-tT1 tau arsenite assay (tau stress granules per cell); format: cell-based; conditions: SY5Y-tT1 cells, 2 hours compound, 90 minutes arsenite, 50% reduction of granules per cell, read-out: IC50, Inhibitor Activity of Tau Stress Granules
Protocol: Example 91: In Vitro Efficacy Assay of Exemplary Compounds—SY5Y-tT1 Tau Arsenite/Thapsigargin Assay
• Before harvesting cells—checked to see if cells are ~80% confluency in their flask • 1. Aspirated growth media from flask. • 2. Added 4 mL of (0.25%) trypsin-EDTA (REF: 25200-056) • 3. Placed in 37° C. incubator for 5 minutes. • 4. Removed from incubator and added 11 mL growth media, washing any remaining cells adhered to the bottom of the flask. • 5. Transferred cell containing media to a 50 mL conical tube and spun for 5 minutes at 800 rpm. • 6. Aspirated supernatant and added 5 mL of growth media to cell pellet, triturating to make a homogenous cell solution. • 7. After counting cells, followed one of these plating paradigms: • (A) If treating with arsenite, plated cells at […] with tetracycline solution (5 mg/mL) added to cell solution at 1:5000 • (B) If treating with thapsigargin, plated cells at 4,000 cells/well with tetracycline solution (5 mg/mL) added to cell solution at 1:5000 • 8. Incubated at 37° C. for 48 hours.
• Solubilized all compounds to 10 mM prior to making dilution plates • 1. To a 96-well U-bottom plate (Falcon Non-Tissue Culture Treated Plates REF: 351177) added 120 μL growth media to all 96 wells, with an additional 58.2 μL to row A. • 2. Added 1.8 μL of 10 mM compound stock to wells A1-11, adding 1.8 μL of 10 mM PERKi stock (Selleck Chemistry GSK2606414 Cat No. S7307) as the control. • 3. Serially diluted 60 μL from row A down through each row, finishing with 180 μL total volume in row H. • 4. Transferred 12.5 μL of each dilution plate well to the correlating wells in cell plate, being careful not to touch cells adhered to bottom of the plate. • 5. Incubated for 2 hours.
• 1. Added 720 μL of 0.05 M sodium arsenite solution (CAS #: 7784-46-5) to 10 mL of growth media for a final concentration of […] arsenite solution, mix well. • 2. Added 12.5 μL of arsenite solution to all wells of compounds treated plate intended for arsenite treatment. • 3. Incubated at 37° C. for 90 minutes.
• Before beginning this part of the protocol: • Made 1×PBS by diluting 10× stock (10×, Phosphate buffered saline, Fisher #BP399— • 4) in sterile deionized water. • Diluted paraformaldehyde (16% Paraformaldehyde solution, Electron Microscopy Sciences #15710-S) to 4% in 1×PBS. • Diluted Hoechst stain (Life Technologies #H3570) 1:10,000 in 1×PBS (1 μL Hoechst per 10 mL 1×PBS). • Both solutions were protected from light. • 1) After compound treatment, aspirated media from cell plates and gently added in 50 μL of 4% paraformaldehyde for 10 min protected from light at room temperature. • 2) Aspirated paraformaldehyde solution and gently added 50 μL of 1:10,000 Hoechst solution to each well and incubated for 10 min protected from light at room temperature. • 3) Aspirated Hoechst solution and gently added 100 μL 1×PBS. Cover the plate with aluminum film (VWR #60941-126). • 4) Stored at 4° C. or used immediately for imaging on ThermoFisher CX7 imager.
Exemplary compounds of the disclosed herein were evaluated for efficacy for inhibitor activity of tau stress granules in the arsenite assay and quantified as drug concentration providing a 50% reduction (IC50) of granules per cell is shown in Table 4.
In Table 4 below, A indicates an IC50 (μM)<0.5 μM, B indicates an IC50 (μM) 0.5 μM to <1 μM, C indicates an IC50 (μM) 1 μM to <2 μM, and D indicates an IC50 (μM) 2 μM to <6 μM.

| Compound | IC50 [1] | IC50 [2] |
| --- | --- | --- |
| CCN1CCC(c2ccc(-c3cc(C)c(C(=O)N4CC[C@H](N)C4)s3)cc2)CC1 [Compound 176, (S)-(3-aminopyrrolidin-1-yl)(5-(4-(1-ethylpiperidin-4-yl)phenyl)-3-methylthiophen-2-yl)methanone] | < 500 nM | 500 to 1000 nM |
| COCCCN1CCC(c2ccc(-c3cc(C)c(C(=O)N4CC[C@H](N)C4)s3)cc2)CC1 [Compound 141, (S)-(3-aminopyrrolidin-1-yl)(5-(4-(1-(3-methoxypropyl)piperidin-4-yl)phenyl)-3-methylthiophen-2-yl)methanone] | < 500 nM | 500 to 1000 nM |
| Cc1cc(-c2ccc(C3CCN(C)CC3)c(F)c2)sc1C(=O)N1CC[C@H](N)C1 [Compound 136, (S)-(3-aminopyrrolidin-1-yl)(5-(3-fluoro-4-(1-methylpiperidin-4-yl)phenyl)-3-methylthiophen-2-yl)methanone] | < 500 nM | < 500 nM |
| Cc1cc(-c2ccc(C3CCN(CC4CCCOC4)CC3)cc2)sc1C(=O)N1CC[C@H](N)C1 (stereo partly drawn) [Compound 139, ((S)-3-aminopyrrolidin-1-yl)(3-methyl-5-(4-(1-((tetrahydro-2H-pyran-3-yl)methyl)piperidin-4-yl)phenyl)thiophen-2-yl)methanone] | < 500 nM | 500 to 1000 nM |
| Cc1cc(-c2ccc3c(c2)CNCC3)sc1C(=O)N1CC[C@H](N)C1 [Compound 198, (S)-(3-aminopyrrolidin-1-yl)(3-methyl-5-(1,2,3,4-tetrahydroisoquinolin-7-yl)thiophen-2-yl)methanone] | < 500 nM | 2000 to 6000 nM |
| CCCN1CCC(c2ccc(-c3cc(C)c(C(=O)N4CC[C@H](N)C4)s3)cc2)CC1 [Compound 182, (S)-(3-aminopyrrolidin-1-yl)(3-methyl-5-(4-(1-propylpiperidin-4-yl)phenyl)thiophen-2-yl)methanone] | < 500 nM | < 500 nM |
| Cc1cc(-c2ccc(C3CCN(C4CCS(=O)(=O)CC4)CC3)cc2)sc1C(=O)N1CC[C@H](N)C1 [Compound 156, (S)-(3-aminopyrrolidin-1-yl)(5-(4-(1-(1,1-dioxidotetrahydro-2H-thiopyran-4-yl)piperidin-4-yl)phenyl)-3-methylthiophen-2-yl)methanone] | < 500 nM | < 500 nM |
| Cc1cc(-c2ccc(C(C)N(C)C)cc2)sc1C(=O)N1CC[C@H](N)C1 (stereo partly drawn) [Compound 200, ((S)-3-aminopyrrolidin-1-yl)(5-(4-(1-(dimethylamino)ethyl)phenyl)-3-methylthiophen-2-yl)methanone] | < 500 nM | 2000 to 6000 nM |
| Cc1cc(-c2ccc(C3CCN(C4CCCC4)CC3)cc2)sc1C(=O)N1CC[C@H](N)C1 [Compound 180, (S)-(3-aminopyrrolidin-1-yl)(5-(4-(1-cyclopentylpiperidin-4-yl)phenyl)-3-methylthiophen-2-yl)methanone] | < 500 nM | < 500 nM |
| COCCN1CCC(c2ccc(-c3cc(C)c(C(=O)N4CC[C@H](N)C4)s3)cc2)CC1 [Compound 142, (S)-(3-aminopyrrolidin-1-yl)(5-(4-(1-(2-methoxyethyl)piperidin-4-yl)phenyl)-3-methylthiophen-2-yl)methanone] | < 500 nM | 500 to 1000 nM |
| Cc1cc(-c2ccc(C3CCN(C4CCOCC4)CC3)cc2)sc1C(=O)N1CC[C@H](N)C1 [Compound 178, (S)-(3-aminopyrrolidin-1-yl)(3-methyl-5-(4-(1-(tetrahydro-2H-pyran-4-yl)piperidin-4-yl)phenyl)thiophen-2-yl)methanone] | < 500 nM | < 500 nM |
| Cc1cc(-c2ccc3c(c2)CCNC3)sc1C(=O)N1CC[C@H](N)C1 [Compound 199, (S)-(3-aminopyrrolidin-1-yl)(3-methyl-5-(1,2,3,4-tetrahydroisoquinolin-6-yl)thiophen-2-yl)methanone] | < 500 nM | 2000 to 6000 nM |
| Cc1cc(-c2ccc(N3CCN(C4CCOCC4)CC3)cc2)sc1C(=O)N1CC[C@H](N)C1 [Compound 151, (S)-(3-aminopyrrolidin-1-yl)(3-methyl-5-(4-(4-(tetrahydro-2H-pyran-4-yl)piperazin-1-yl)phenyl)thiophen-2-yl)methanone] | – | 2000 to 6000 nM |
| Cc1cc(-c2ccc(N3CCN(C4CCOC4)CC3)cc2)sc1C(=O)N1CC[C@H](N)C1 (stereo partly drawn) [Compound 152, ((S)-3-aminopyrrolidin-1-yl)(3-methyl-5-(4-(4-(tetrahydrofuran-3-yl)piperazin-1-yl)phenyl)thiophen-2-yl)methanone] | – | 1000 to 2000 nM |
| Cc1cc(-c2ccc(C3CCN(C4CCCCC4)CC3)cc2)sc1C(=O)N1CC[C@H](N)C1 [Compound 179, (S)-(3-aminopyrrolidin-1-yl)(5-(4-(1-cyclohexylpiperidin-4-yl)phenyl)-3-methylthiophen-2-yl)methanone] | < 500 nM | 500 to 1000 nM |
| Cc1cc(-c2ccc(C3CCN(C4CCSCC4)CC3)cc2)sc1C(=O)N1CC[C@H](N)C1 [Compound 167, (S)-(3-aminopyrrolidin-1-yl)(3-methyl-5-(4-(1-(tetrahydro-2H-thiopyran-4-yl)piperidin-4-yl)phenyl)thiophen-2-yl)methanone] | – | 1000 to 2000 nM |
| Cc1cc(-c2ccc(C3CCN(C)CC3)cc2Cl)sc1C(=O)N1CC[C@H](N)C1 [Compound 120, (S)-(3-aminopyrrolidin-1-yl)(5-(2-chloro-4-(1-methylpiperidin-4-yl)phenyl)-3-methylthiophen-2-yl)methanone] | – | 1000 to 2000 nM |
| Cc1cc(C2CCN(C)CC2)ccc1-c1cc(C)c(C(=O)N2CC[C@H](N)C2)s1 [Compound 134, (S)-(3-aminopyrrolidin-1-yl)(3-methyl-5-(2-methyl-4-(1-methylpiperidin-4-yl)phenyl)thiophen-2-yl)methanone] | – | 2000 to 6000 nM |
| C=CCc1cc(-c2ccc(C3CCN(C(C)C)CC3)cc2)sc1C(=O)N1CC[C@H](N)C1 [Compound 109, (S)-(3-allyl-5-(4-(1-isopropylpiperidin-4-yl)phenyl)thiophen-2-yl)(3-aminopyrrolidin-1-yl)methanone] | – | < 500 nM |
| Cc1cc(-c2ccc(C3CCN(C)CC3)c(OC(F)(F)F)c2)sc1C(=O)N1CC[C@H](N)C1 [Compound 112, (S)-(3-aminopyrrolidin-1-yl)(3-methyl-5-(4-(1-methylpiperidin-4-yl)-3-(trifluoromethoxy)phenyl)thiophen-2-yl)methanone] | – | 2000 to 6000 nM |
| Cc1cc(-c2cnc(C3CCN(C)CC3)nc2)sc1C(=O)N1CC[C@H](N)C1 [Compound 124, (S)-(3-aminopyrrolidin-1-yl)(3-methyl-5-(2-(1-methylpiperidin-4-yl)pyrimidin-5-yl)thiophen-2-yl)methanone] | – | < 500 nM |
| CCCc1cc(-c2ccc(C3CCN(C(C)C)CC3)cc2)sc1C(=O)N1CC[C@H](N)C1 [Compound 110, (S)-(3-aminopyrrolidin-1-yl)(5-(4-(1-isopropylpiperidin-4-yl)phenyl)-3-propylthiophen-2-yl)methanone] | – | 1000 to 2000 nM |
| Cc1cc(-c2ccc(C3CCN(C)CC3)cn2)sc1C(=O)N1CC[C@H](N)C1 [Compound 104, (S)-(3-aminopyrrolidin-1-yl)(3-methyl-5-(5-(1-methylpiperidin-4-yl)pyridin-2-yl)thiophen-2-yl)methanone] | – | 1000 to 2000 nM |
